Assay results taken from patent US20050267204A1, “Synergistic gold-containing compositions” (MEDICAL INNOVATIONS LIMITED, priority 1996, published 2005).
“Also recorded” adds a separate entry of the source. Where two headings read alike, the source gives them in different places.

Experiments:
[1] = test system: TPA-induced epidermal hyperplasia; test: Inhibition of TPA-induced epidermal hyperplasia (epidermal thickness) on back skin of mice; format: in vivo, BALB/c mice; details: for Emax: read-out: Emax (% inhibition); for Relative potency: hydrocortisone acetate = 1.0
Description: (§1) The mice were housed in stainless steel cages, 6 mice per cage under normal laboratory conditions (room temperature at about 22° C.) at least 7 days before the experiments for acclimatization. Food and water were allowed ad libitum throughout the experiment period. The backs of the mice were shaved with an electric clipper two days before each treatment and only those mice showing no hair regrowth were used (i.e., the mice in the resting phase of the hair growth cycle were selected). During treatment, the mice were held with their tails and put on top of the cage so that they grasped the cage and rested there. The solutions were applied to an area approximately 2 cm×2 cm on the shaved back of the mice by using a “Pipetman” to apply the solution. If auranofin ointment or ointment base was applied, the amount was standardized by using a microspatula which was crimped at one end, the ointment was then put into the ridge and the excess removed by means of another microspatula and applied sparingly twice a day. After a fixed time, the mice were killed routinely by cervical dislocation between 9 a.m. and 11 a.m. to avoid variations due to circadian rhythms, and an area (1 cm×1 cm) was excised from the centre of the treated area by scalpel and scissors. The rest of the tissues were disposed by combustion. The tissues were then fixed, embedded, sectioned and stained.
Epidermal thickness was determined by image analysis. This image analysis system was a minicomputer (Tracor Northern TN8500) attached to a light microscope (Zeiss Axioplan) and a camcorder (Sony DXC-3000P). Sections were taken from each tissue block and 20 measurements were taken at fixed intervals from each section. The average value for the 20 measurements was obtained and entered as one value for each mouse. The mean and SEM for the six mice in each treatment group were calculated.
(§2) The percent inhibition of drug on TPA-induced skin responses (i.e., epidermal hyperplasia, inflammatory cell infiltration and skin-fold thickness) was calculated by using the following formula: [formula]
(§3) This provides estimates of (a) the potency, (b) the efficacy or maximum effect (Emax) and the slope of the log concentration-response curve by using Hill coefficient (γ). The Hill Equation may be expressed as follows: [formula] where IC50 is the drug concentration producing 50% of the maximal response and Emax refers to the maximal effect produced by the drug and is also termed efficacy. Efficacy is the measurement of the intrinsic ability of a drug to initiate a response once it occupies receptor sites. […] The Hill coefficient (γ) measures the slope of the dose-effect curve which can be markedly influenced by the shape of the curve that describes the binding of the drug to the receptor. For many drugs, y lies between 0.6 and 1.5. […] On the other hand, when γ is less than 1, with a shallow hyperbolic concentration effect relationship, the activity occurs over a wide range of drug levels.
(§4) In the present study, concentration-response curves were obtained for a series of corticosteroids. In these experiments, curve fitting was accomplished using a computer programme called “The Scientist” (MicroMath Scientific Software, Salt Lake City, Utah, USA.) in which the parameters, Emax, IC50 and Hill coefficient (γ) for each steroids were estimated by using non-linear regression and least square fits.
Mice were divided into treatment groups. TPA and corticosteroids were premixed to the concentrations required and applied to the backs of mice immediately. For those steroids not very soluble in acetone (i.e., betamethasone, dexamethasone, hydrocortisone and hydrocortisone acetate), the drugs were dissolved in 100 μL dimethylformamide before further dilution with acetone. The efficacy of corticosteroids in inhibiting epidermal hyperplasia, inflammatory cell infiltration and skin-fold thickness was assessed as described previously. Concentration-response curves were determined after computer-fitting of data.

[2] = test system: TPA-induced inflammatory cell infiltration into the dermis; test: Inhibition of TPA-induced inflammatory cell infiltration into the dermis of mice; format: in vivo, BALB/c mice; details: for Emax: read-out: Emax (% inhibition); for Relative potency: hydrocortisone acetate = 1.0; for Potency for inhibition of TPA-induced inflammatory cell infiltration (in words): ranking in text
Description: as §1
Infiltration of inflammatory cells was determined by the same image analysis system using the section taken from the block of mouse skin embedded in paraffin wax or Spurr's resin and stained with haematoxylin and eosin or toluidine blue respectively. For each section, 10 fields, unless otherwise stated, were chosen randomly and the cell density per mm^2 of field determined. The average value for the 10 fields was obtained and entered as one value for each mouse. The mean and SEM for the six mice in each treatment group were calculated.
The measurement of the inflammatory cell infiltration included the background values which included other materials in the dermis stained in the same way.
as §2, §3, §4
Mice were divided into treatment groups. TPA and corticosteroids were premixed to the concentrations required and applied to the backs of mice immediately.

[3] = Mus musculus, from Hill equation, concentration that produced 50% of Emax, read-out: IC50 for inhibition of epidermal thickening (M × 10^−4)
[4] = Mus musculus, read from concentration-response curve, concentration that inhibited 50% of the TPA effect, read-out: IC50 for inhibition of epidermal thickening (M × 10^−4)
[5] = Mus musculus, topical, Hill equation fit, means ± SD, steroid premixed with TPA, topical, read-out: IC50 (M × 10^−4)
[6] = Mus musculus, Hill equation fit, means ± SD, steroid premixed with TPA, topical
[7] = Mus musculus, from Hill equation, concentration that produced 50% of Emax, read-out: IC50 for inhibition of inflammatory cell infiltration in the dermis (M × 10^−4)
[8] = Mus musculus, read from concentration-response curve, concentration that inhibited 50% of the TPA effect, read-out: IC50 for inhibition of inflammatory cell infiltration in the dermis (M × 10^−4)
[9] = Hill equation fit, means ± SD, steroid premixed with TPA, topical
[10] = Hill equation fit, means ± SD, steroid premixed with TPA, topical, read-out: IC50 (M × 10^−4)
[11] = IC50 without auranofin divided by IC50 with auranofin (0.2%)
[12] = with auranofin (0.2%), from computer fitted graph, means ± SD, read-out: Apparent IC50 (M × 10^−4) with auranofin
[13] = without auranofin, from computer fitted graph, means ± SD, read-out: Apparent IC50 (M × 10^−4) without auranofin
[14] = Mus musculus, topical, read-out: IC50 (M × 10^−4), Hill equation fit, means ± SD, steroid premixed with TPA, topical

IC50 [1, 3] [µM]	IC50 [1, 4] [µM]	IC50 [1, 5] [µM]	IC50 [2, 7] [µM]	IC50 [2, 8] [µM]	IC50 [2, 5] [µM]	Structure (SMILES)	Emax [1, 6] [%]	Relative potency ([1]; from Hill-equation IC50)	Relative potency ([1]; from IC50 read from curve)	Emax [2, 6] [%]	Relative potency ([2]; from Hill-equation IC50)	Relative potency ([2]; from IC50 read from curve)	Potency for inhibition of TPA-induced epidermal hyperplasia (in words) ([1]; ranking in text)	Potency for inhibition of TPA-induced inflammatory cell infiltration (in words) [2]	other results
113	140	113 ± 35	39	70	39 ± 3	CC1(C)O[C@@H]2C[C@H]3[C@@H]4CCC5=CC(=O)C=C[C@]5(C)[C@@]4(F)[C@@H](O)C[C@]3(C)[C@]2(C(=O)CO)O1 [Triamcinolone acetonide]	89.8 ± 6.4	32.45	50.0	77.2 ± 1.26	198.28	157.14	–	–	–
97	110	97 ± 13	31	60	31 ± 5	CC1(C)O[C@@H]2C[C@H]3[C@@H]4CCC5=CC(=O)CC[C@]5(C)[C@@]4(F)[C@@H](O)C[C@]3(C)[C@]2(C(=O)CCl)O1 [Halcinonide]	92.5 ± 2.98	37.80	63.64	90.3 ± 6.29	249.45	183.33	medium to strong potencies	medium to strong potencies	–
15	22	15 ± 2	29	65	29 ± 3	CCCCC(=O)O[C@]1(C(=O)CO)[C@@H](C)C[C@H]2[C@@H]3CCC4=CC(=O)C=C[C@]4(C)[C@@]3(F)[C@@H](O)C[C@@]21C [Betamethasone valerate, betamethasone valerate]	82.2 ± 2.84	244.47	318.18	73.5 ± 1.76	266.66	169.23	–	strong to very strong anti-inflammatory effect	Potency for inhibition of TPA-induced epidermal hyperplasia (in words) [1]: strong to very strong potencies; also recorded: most potent agent
126	200	126 ± 44	444	410	444 ± 102	C[C@@H]1C[C@H]2[C@@H]3CCC4=CC(=O)C=C[C@]4(C)[C@@]3(F)[C@@H](O)C[C@]2(C)[C@@]1(O)C(=O)CO [Dexamethasone]	90.7 ± 5.72	29.10	35.0	99	17.42	26.83	–	–	–

More lines, now with the values behind:

Structure (SMILES)	IC50 [1, 3] [µM]	IC50 [1, 4] [µM]	IC50 [1, 5] [µM]	IC50 [2, 7] [µM]	IC50 [2, 8] [µM]	IC50 [2, 5] [µM]	Emax [1, 6] [%]	Relative potency ([1]; from Hill-equation IC50)	Relative potency ([1]; from IC50 read from curve)	Emax [2, 6] [%]	Relative potency ([2]; from Hill-equation IC50)	Relative potency ([2]; from IC50 read from curve)	Potency for inhibition of TPA-induced epidermal hyperplasia (in words) ([1]; ranking in text)	Potency for inhibition of TPA-induced inflammatory cell infiltration (in words) [2]	other results
CC[PH](CC)(CC)[Au][S][C@@H]1O[C@H](COC(C)=O)[C@@H](OC(C)=O)[C@H](OC(C)=O)[C@H]1OC(C)=O [Auranofin, (1-thio-p-D-glucopyranose 2,3,4,6-tetraacetato-S)-(triethylphosphine)-Au(I)]	–	–	–	–	–	–	–	–	–	–	–	–	–	–	Inhibition of TPA-induced epidermal hyperplasia ([1]; auranofin (0.2%) alone, FIG. 1): about 10%
C[C@@H]1C[C@H]2[C@@H]3CCC4=CC(=O)C=C[C@]4(C)[C@@]3(Cl)[C@@H](O)C[C@]2(C)[C@@]1(OC(=O)c1ccco1)C(=O)CCl [Mometasone furoate, mometasone furoate]	–	–	–	–	–	–	–	159.43	175.0	–	386.65	366.67	strong to very strong potencies	strong to very strong anti-inflammatory effect	Emax (% inhibition) [1, 9]: 83.31 ± 3.04 % inhibition; IC50 [1, 10]: 23 ± 4 µM; Synergistic factor [1, 11]: 1.29; Synergism with auranofin, epidermal hyperplasia (in words) ([1]; auranofin (0.2%) co-administered): no synergism or even additive effect; IC50 ([1]; from Hill equation, concentration that produced 50% of Emax, read-out: IC50 for inhibition of epidermal thickening (M × 10^−4)): 23 µM; IC50 ([1]; read from concentration-response curve, concentration that inhibited 50% of the TPA effect, read-out: IC50 for inhibition of epidermal thickening (M × 10^−4)): 40 µM; IC50 [1, 12]: 31 ± 5 µM; IC50 [1, 13]: 40 ± 4 µM; Emax (% inhibition) [2, 9]: 89.98 ± 4.88^ % inhibition; IC50 [2, 10]: 20 ± 5 µM; Synergistic factor [2, 11]: 37.50; Synergism with auranofin, inflammatory cell infiltration (in words) ([2]; auranofin (0.2%), FIG. 2): massive synergism; Concentration that, in the absence of auranofin, produced an equal effect to the combination ([2]; equal to 5×10^−4 M with auranofin (0.2%), FIG. 2): 1 mM; IC50 ([2]; from Hill equation, concentration that produced 50% of Emax, read-out: IC50 for inhibition of inflammatory cell infiltration in the dermis (M × 10^−4)): 20 µM; Increase in apparent IC50 ([2]; in presence of auranofin (0.2%), Table 10): about 3,800%; IC50 ([2]; read from concentration-response curve, concentration that inhibited 50% of the TPA effect, read-out: IC50 for inhibition of inflammatory cell infiltration in the dermis (M × 10^−4)): 30 µM; IC50 [2, 12]: 0.8 ± 0.1 µM; IC50 [2, 13]: 30 ± 5 µM
CCC(=O)OCC(=O)[C@@]1(OC(=O)CC)[C@H](C)C[C@H]2[C@H]3[C@H]([C@@H](O)C[C@@]21C)[C@@]1(C)C=CC(=O)C=C1C[C@H]3Cl [Alclometasone dipropionate]	–	–	–	–	–	–	–	41.20	70.0	–	241.66	183.33	medium to strong potencies	medium to strong potencies	IC50 ([1]; Mus musculus, read-out: IC50 for inhibition of epidermal thickening (M × 10^−4), from Hill equation, concentration that produced 50% of Emax): 89 µM; IC50 ([1]; Mus musculus, read-out: IC50 for inhibition of epidermal thickening (M × 10^−4), read from concentration-response curve, concentration that inhibited 50% of the TPA effect): 100 µM; Emax ([1]; Mus musculus, topical): 96.6 ± 7.9%; IC50 [1, 14]: 89 ± 30 µM; IC50 ([2]; Mus musculus, read-out: IC50 for inhibition of inflammatory cell infiltration in the dermis (M × 10^−4), from Hill equation, concentration that produced 50% of Emax): 32 µM; IC50 ([2]; Mus musculus, read-out: IC50 for inhibition of inflammatory cell infiltration in the dermis (M × 10^−4), read from concentration-response curve, concentration that inhibited 50% of the TPA effect): 60 µM; Emax ([2]; Mus musculus, topical): 82.1 ± 5.65%; IC50 [2, 14]: 32 ± 9 µM
CC(=O)OCC(=O)[C@@]1(O)CC[C@H]2[C@@H]3CCC4=CC(=O)CC[C@]4(C)[C@H]3[C@@H](O)C[C@@]21C [Hydrocortisone acetate, hydrocortisone acetate]	3670	7000	3670 ± 1200	7730	11000	7730 ± 1380	79.6 ± 7.62	1.0	1.0	79.4	1.0	1.0	low to medium potencies	low to medium potencies	–
